How the values were obtained:
Details in all cases: Oryctolagus cuniculus
[1] = Antiplatelet activity against washed rabbit platelet assessed as collagen-induced platelet aggregation at 50 ug/mL pre-incubated 3 mins before collagen challenge by turbidimetric method
[2] = Antiplatelet activity against washed rabbit platelet assessed as arachidonic acid-induced platelet aggregation at 20 ug/mL pre-incubated 3 mins before arachidonic acid challenge by turbidimetric method
[3] = Antiplatelet activity against washed rabbit platelet assessed as platelet activating factor-induced platelet aggregation at 50 ug/mL preincubated 3 mins before PAF challenge by turbidimetric method
[4] = Antiplatelet activity against washed rabbit platelet assessed as thrombin-induced platelet aggregation at 50 ug/mL preincubated 3 mins before thrombin challenge by turbidimetric method
[5] = Antiplatelet activity against washed rabbit platelet assessed as arachidonic acid-induced platelet aggregation at 50 ug/mL preincubated 3 mins before arachidonic acid challenge by turbidimetric method
[6] = Antiplatelet activity against washed rabbit platelet assessed as thrombin-induced platelet aggregation at 100 ug/mL pre-incubated 3 mins before thrombin challenge by turbidimetric method
[7] = Antiplatelet activity against washed rabbit platelet assessed as platelet activating factor-induced platelet aggregation at 100 ug/mL pre-incubated 3 mins before PAF challenge by turbidimetric method
[8] = Antiplatelet activity against washed rabbit platelet assessed as arachidonic acid-induced platelet aggregation at 100 ug/mL pre-incubated 3 mins before arachidonic acid challenge by turbidimetric method
[9] = Antiplatelet activity against washed rabbit platelet assessed as collagen-induced platelet aggregation at 100 ug/mL pre-incubated 3 mins before collagen challenge by turbidimetric method
[10] = Antiplatelet activity against washed rabbit platelet assessed as collagen-induced platelet aggregation at 20 ug/mL pre-incubated 3 mins before collagen challenge by turbidimetric method
[11] = Antiplatelet activity against washed rabbit platelet assessed as thrombin-induced platelet aggregation at 20 ug/mL pre-incubated 3 mins before thrombin challenge by turbidimetric method
[12] = Antiplatelet activity against washed rabbit platelet assessed as platelet activating factor-induced platelet aggregation at 20 ug/mL pre-incubated 3 mins before PAF challenge by turbidimetric method
[13] = Antiplatelet activity against washed rabbit platelet assessed as arachidonic acid-induced platelet aggregation at 5 ug/mL pre-incubated 3 mins before arachidonic acid challenge by turbidimetric method
[14] = Antiplatelet activity against washed rabbit platelet assessed as arachidonic acid-induced platelet aggregation at 10 ug/mL pre-incubated 3 mins before arachidonic acid challenge by turbidimetric method

| SMILES | Aggregation % at 50 µg/mL [1] | Aggregation % at 20 µg/mL [2] | Aggregation % at 50 µg/mL [3] | aggregation at 50 µg/mL [4] | Aggregation % at 50 µg/mL [5] | Aggregation % at 100 µg/mL [6] | Aggregation % at 100 µg/mL [7] | Aggregation % at 100 µg/mL [8] | Aggregation % at 100 µg/mL [9] | Aggregation % at 20 µg/mL [10] | Aggregation % at 20 µg/mL [11] | Aggregation % at 20 µg/mL [12] | Aggregation % at 5 µg/mL [13] | Aggregation % at 10 µg/mL [14] |
| --- | --- | --- | --- | --- | --- | --- | --- | --- | --- | --- | --- | --- | --- | --- |
| CC(=O)Oc1ccccc1C(=O)O [ASPIRIN] | 88.4% | 11.7% | 91.2% | 94.2% | 7.8% | – | – | – | – | – | – | – | – | – |
| COCc1c(OC)c2ccc(OC)cc2[nH]c1=O [SEMECARPIFOLINE] | – | – | – | – | – | 85.8% | 88.8% | 81% | 82.7% | – | – | – | – | – |
| COc1ccc2c(OC)c3c(nc2c1OC)O[C@H](C(C)(C)O)C3 | – | – | – | – | – | 86.5% | 89.8% | 81.7% | 84.4% | – | – | – | – | – |
| COc1cc(C(=O)O)cc(OC)c1O [SYRINGIC ACID] | – | – | – | – | – | 88.3% | 89.6% | 83.2% | 85.1% | – | – | – | – | – |
| COc1c2ccc(O)cc2nc2occc12 [CONFUSAMELINE] | – | – | – | – | – | – | 78.6% | 0% | 11.4% | – | – | – | – | – |
| CC(C)=CCc1c(O)ccc2ccc(=O)oc12 [OSTHENOL] | 79.2% | – | – | – | 84.8% | 90.4% | 89.8% | 23.2% | 13.7% | 87% | – | – | – | – |
| CCCCCCCC/C=C\CCCCCCCC(=O)OC [METHYL OLEATE] | – | 81.7% | – | – | – | – | – | – | – | 84.4% | 86.7% | 89.4% | – | – |
| COc1cc2nc3occc3c(OC)c2cc1OC [KOKUSAGININE] | 80.6% | – | 88.9% | – | 0% | – | 70.7% | 0% | 15.2% | – | – | – | – | – |
| COc1ccc2c(OC)c3c(nc2c1OC)O[C@@H](C(C)(C)O)[C@H]3O | – | – | – | – | – | 85.4% | 89.4% | 78.3% | 79% | – | – | – | – | – |
| COc1ccc2ccc(=O)oc2c1CC=C(C)C [OSTHOLE] | 7% | 84.5% | 88.6% | – | 52.6% | 86.6% | 0% | 0% | 7.4% | 88.1% | – | 90% | – | – |
| COc1cc(O)c2c(=O)c(OC)c(-c3ccc(OC)c(O)c3)oc2c1 [AYANIN] | 66.1% | 66.3% | – | – | 38% | 85.4% | 88.3% | 13.3% | 43.1% | 80.3% | – | – | 81.9% | 77.2% |

Source: ChEMBL document CHEMBL1155760, “Quinoline alkaloids and other constituents of Melicope semecarpifolia with antiplatelet aggregation activity” (2001)
